This is an account of results in patent US7956086B2, “Methods for the formulation and manufacture of artesunic acid for injection” (priority 2006, dated 2011).

Data set [1] is described as follows: Storage stability of bulk artesunic acid. In kind it is physicochemical. The following applies: 20 months at 25° C. The protocol:
Six thousand dry-filled vials of formulated artesunate for clinical use have been packaged. One thousand of the vials have been reserved for long-term stability testing under various conditions, including elevated temperatures and humidities, to test the integrity and durability of the packaging system. As packaged for clinical use, 20 ml vials have been dry-filled with 110 mg of ethylene oxide sterilized artesunate, stoppered, and sealed.
The sterilized bulk drug of the invention has been tested and is still undergoing stability studies. […] The stability studies are still ongoing.

The conditions of data set [2]: in vivo.
Excerpt: Patients were given a single dose of 1-4 milligrams per kilogram body weight in the form of an injection through an IV catheter (a tube with a needle attached) once a day for 3 days in a row.
The conditions of data set [3]: stored under nitrogen @ 25° C., studies at Knoll; cited from earlier work.

In the case of `C[C@H]1[C@H](OC(=O)CCC(=O)O)O[C@@H]2O[C@@]3(C)CC[C@H]4[C@H](C)CC[C@@H]1[C@@]24OO3` (relative stereo) [artesunic acid, butanedioic Acid, [3R-(3α,5a,6,8a,9α,10α,12,12a R*)]-mono(decahydro-3,6,9-trimethyl-3,12-epoxy-12H-pyrano[4,3-j]-1,2-benzodioxepin-10-yl)ester], the “degradation of sterilized bulk drug on storage” value in data set [1] is given as “no evidence of degradation”. The adverse effects result in data set [2] is reported as “no adverse effects”. For the same compound, the “stability of bulk artesunic acid” value in data set [3] was “at least two years stability”.
